Experimental data from PubChem BioAssay (NCI).
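How tested: cells in 96-well plates exposed to compound for 48 hours at five concentrations. TGI is the concentration that stops growth completely.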

Key:
Assay in all cases: NCI anticancer screen, dose series, 48 h
[1] = tested on: 786-0 renal
[2] = tested on: SF-295 CNS
[3] = tested on: IGROV1 ovarian
[4] = tested on: RPMI-8226 leukemia
[5] = tested on: NCI-H460 lung
[6] = tested on: CAKI-1 renal
[7] = tested on: OVCAR-3 ovarian
[8] = tested on: RXF 393 renal
[9] = tested on: SF-268 CNS
[10] = tested on: T-47D breast
[11] = tested on: OVCAR-5 ovarian
[12] = tested on: M14 melanoma
[13] = tested on: BT-549 breast
[14] = tested on: SK-MEL-5 melanoma
[15] = tested on: MCF7 breast
[16] = tested on: K-562 leukemia
[17] = tested on: SK-MEL-28 melanoma
[18] = tested on: A549 NSCLC
[19] = tested on: U251 CNS
[20] = tested on: NCI-H23 lung
[21] = tested on: NCI-H226 lung
[22] = tested on: EKVX NSCLC
[23] = tested on: MDA-MB-231 breast
[24] = tested on: UACC-62 melanoma
[25] = tested on: NCI-H522 lung
[26] = tested on: SK-MEL-2 melanoma
[27] = tested on: SF-539 CNS
[28] = tested on: A498 renal
[29] = tested on: HOP-62 NSCLC
[30] = tested on: SK-OV-3 ovarian
[31] = tested on: SNB-19 CNS
[32] = tested on: SNB-75 CNS
[33] = tested on: LOX IMVI melanoma
[34] = tested on: MDA-N
[35] = tested on: MALME-3M melanoma
[36] = tested on: HL-60(TB) leukemia
[37] = tested on: MDA-MB-435
[38] = tested on: OVCAR-4 ovarian
[39] = tested on: HCT-15 colon
[40] = tested on: PC-3 prostate
[41] = tested on: DU-145 prostate
[42] = tested on: ACHN renal
[43] = tested on: KM12 colon
[44] = tested on: TK-10 renal
[45] = tested on: HCT-116 colon
[46] = tested on: HOP-92 NSCLC
[47] = tested on: CCRF-CEM leukemia
[48] = tested on: SR leukemia
[49] = tested on: SW-620 colon
[50] = tested on: OVCAR-8 ovarian
[51] = tested on: HT29 colon
[52] = tested on: SN12C renal
[53] = tested on: COLO 205 colon
[54] = tested on: UACC-257 melanoma
[55] = tested on: NCI/ADR-RES ovarian
[56] = tested on: MOLT-4 leukemia
[57] = tested on: HS 578T breast
[58] = tested on: HCC-2998 colon
[59] = tested on: UO-31 renal

For `Br/C(=N\Nc1nn[nH]n1)c1ccncc1`, which TGI [1] is on record?
Its TGI is over 100 µM.

And the TGI [2]?
Its TGI is over 100 µM.

What about the TGI [3] of the same molecule?
The TGI was over 100 µM.

And the TGI [4]?
The TGI was over 100 µM.

And the TGI [5]?
The TGI was over 100 µM.

What about the TGI [6] of the same molecule?
The TGI was over 100 µM.

And the TGI [7]?
Its TGI is over 100 µM.

And the TGI [8]?
The TGI was over 100 µM.

What about the TGI [9] of the same molecule?
The TGI was over 100 µM.

What about the TGI [10] of the same molecule?
Its TGI is over 100 µM.

And the TGI [11]?
Its TGI is over 100 µM.

And the TGI [12]?
The TGI was over 100 µM.

What about the TGI [13] of the same molecule?
The TGI was over 100 µM.

And the TGI [14]?
The TGI was over 100 µM.

And the TGI [15]?
The TGI was over 100 µM.

What about the TGI [16] of the same molecule?
Its TGI is over 100 µM.

What about the TGI [17] of the same molecule?
Its TGI is over 100 µM.

And the TGI [18]?
The TGI was over 100 µM.

What about the TGI [19] of the same molecule?
The TGI was over 100 µM.

And the TGI [20]?
The TGI was over 100 µM.

What about the TGI [21] of the same molecule?
Its TGI is over 100 µM.

What about the TGI [22] of the same molecule?
The TGI was over 100 µM.

What about the TGI [23] of the same molecule?
Its TGI is over 100 µM.

And the TGI [24]?
Its TGI is over 100 µM.

And the TGI [25]?
The TGI was over 100 µM.

And the TGI [26]?
Its TGI is over 100 µM.

What about the TGI [27] of the same molecule?
The TGI was over 100 µM.

And the TGI [28]?
The TGI was over 100 µM.

What about the TGI [29] of the same molecule?
Its TGI is over 100 µM.

What about the TGI [30] of the same molecule?
The TGI was over 100 µM.

And the TGI [31]?
Its TGI is over 100 µM.

And the TGI [32]?
The TGI was over 100 µM.

What about the TGI [33] of the same molecule?
The TGI was over 100 µM.

And the TGI [34]?
Its TGI is over 100 µM.

And the TGI [35]?
Its TGI is over 100 µM.

What about the TGI [36] of the same molecule?
Its TGI is over 100 µM.

What about the TGI [37] of the same molecule?
Its TGI is over 100 µM.

What about the TGI [38] of the same molecule?
The TGI was over 100 µM.

What about the TGI [39] of the same molecule?
The TGI was over 100 µM.

And the TGI [40]?
The TGI was over 100 µM.

And the TGI [41]?
The TGI was over 100 µM.

What about the TGI [42] of the same molecule?
Its TGI is over 100 µM.

And the TGI [43]?
The TGI was over 100 µM.

And the TGI [44]?
The TGI was over 100 µM.

And the TGI [45]?
The TGI was over 100 µM.

What about the TGI [46] of the same molecule?
The TGI was over 100 µM.

And the TGI [47]?
Its TGI is over 100 µM.

What about the TGI [48] of the same molecule?
The TGI was over 100 µM.

What about the TGI [49] of the same molecule?
The TGI was over 100 µM.

And the TGI [50]?
Its TGI is over 100 µM.

And the TGI [51]?
The TGI was over 100 µM.

What about the TGI [52] of the same molecule?
The TGI was over 100 µM.

And the TGI [53]?
Its TGI is over 100 µM.

What about the TGI [54] of the same molecule?
The TGI was over 100 µM.

And the TGI [55]?
The TGI was over 100 µM.

What about the TGI [56] of the same molecule?
Its TGI is over 100 µM.

What about the TGI [57] of the same molecule?
The TGI was over 100 µM.

Which results are given for `CSc1nc(SC)c2ncn(C3CC(Oc4ccc(C)cc4)C(COc4ccc(C)cc4)O3)c2n1` (configuration not stated)?
TGI [1]: > 100 µM; TGI [2]: > 100 µM; TGI [3]: > 100 µM; TGI [4]: > 100 µM; TGI [5]: > 100 µM; TGI [6]: > 100 µM; TGI [7]: > 100 µM; TGI [9]: > 100 µM; TGI [10]: > 100 µM; TGI [11]: > 100 µM; TGI [12]: > 100 µM; TGI [13]: > 100 µM; TGI [14]: > 100 µM; TGI [15]: > 100 µM; TGI [17]: > 100 µM; TGI [18]: > 100 µM; TGI [19]: > 100 µM; TGI [20]: > 100 µM; TGI [21]: > 100 µM; TGI [22]: > 100 µM; TGI [23]: > 100 µM; TGI [58]: > 100 µM; TGI [24]: > 100 µM; TGI [25]: > 100 µM; TGI [26]: > 100 µM; TGI [27]: > 100 µM; TGI [28]: > 100 µM; TGI [29]: > 100 µM; TGI [30]: > 100 µM; TGI [31]: > 100 µM; TGI [32]: > 100 µM; TGI [33]: > 100 µM; TGI [34]: > 100 µM; TGI [35]: > 100 µM; TGI [36]: > 100 µM; TGI [37]: > 100 µM; TGI [38]: > 100 µM; TGI [39]: > 100 µM; TGI [40]: > 100 µM; TGI [41]: > 100 µM; TGI [42]: > 100 µM; TGI [43]: > 100 µM; TGI [44]: > 100 µM; TGI [45]: > 100 µM; TGI [46]: > 100 µM; TGI [47]: > 100 µM; TGI [49]: > 100 µM; TGI [50]: > 100 µM; TGI [51]: > 100 µM; TGI [52]: > 100 µM; TGI [53]: > 100 µM; TGI [54]: > 100 µM; TGI [55]: > 100 µM; TGI [59]: 7.61 µM; TGI [57]: > 100 µM
